From patent US12662451B2, “Chemical compounds and uses thereof” (GLAXOSMITHKLINE INTELLECTUAL PROPERTY (NO.4) LIMITED, priority 2023, dated 2026)
Read-outs that look alike come from different tables or passages of the source.

Columns and labels:
[1] = test system: SW48 human colorectal cancer cells (MSI-H cancer cells)
[2] = biological target: T1, recombinant full-length WRN protein (1-1432) (Homo sapiens, UniProt Q14191); experiment: WRN unwinding activity, fluorogenic 384-well assay (Example A); format: biochemical; details: WRN unwinding activity, Table 2; for IC50: 4 hr, read-out: 4 hr UNW pIC50 (converted)
T1 construct: recombinant full-length WRN protein (1-1432)
Summary of the method: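 Read-out is end-point unwinding of a fluorophore/quencher duplex (ex 525, em 598 nm) after 60 min with 200 μM ATP and 12 nM DNA (2× stocks), EDTA stop. Compound first sat 4 h with 200 pM WRN (2× stock) in pH 8.0 Tris buffer; four-parameter fit gives pIC50.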

[3] = test system: SW48 human colorectal cancer cells; experiment: Calculated free drug potency in SW48 cell assay, corrected with media free fraction (Example C); format: cell-based; details: Homo sapiens, SW48, SW48 pCC50 corrected with measured free fraction in cell assay media
Summary of the method: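 Free drug potency derives from correcting SW48 assay concentrations with the unbound fraction in medium. That fraction came from RED against pH 7.4 PBS, 1 μM nominal compound, 4 h at 37 °C, quantified by LC-MS/MS peak area ratios at T=240 versus T=0 min.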

[4] = test system: SW48 human colorectal cancer cells (MSI-H cancer cells); experiment: SW48 cell viability, CellTiter-Glo, 120 hours (Example B); details: Homo sapiens
[5] = test system: SW48 human colorectal cancer cell line xenografts; experiment: In vivo efficacy in mouse model bearing SW48 xenografts (Example D); details: SW48 xenograft, female nude mice
Method: In Viva Efficacy Study of Test Compounds in Mouse Model Bearing SW48 Human Colorectal Cancer Cell Line Xenografts
Experiments were performed with female Crl:Nu-Foxn1^nu nude mice. Animals were housed under optimized hygienic condition with food and water at libitum and a 12 h:12 h light:dark cycle. Animals were allowed to acclimatize for at least 4 days before being enrolled in the experimental design.
SW48 human colorectal cancer cells (RRID:CVCL1724) were obtained from ATCC. The cells were cultured in RPMI 1640 with 10% Fetal Bovine Serum at 37° C. in atmosphere of 5% CO2 in air. To establish SW48 xenografts, cells were harvested and resuspended in serum free RPM11640 and Matrigel before inoculation and 5×10^6 SW48 tumor cells were injected subcutaneously in 100 μL volume using 27G1/2 needle. Cells were inoculated in the right hind flank of the animals.
Post cell inoculation, tumor growth was monitored daily, and animals were randomized into treatment groups (n=10/group) once the tumor volume reached an appropriate size (80-150 mm^3). Throughout the treatment period, both tumor volume and body weight were measured approximately twice a week. The tumor size, in mm^3, was computed using the formula: 0.5×L×W^2, where W=width and L=length of the tumor. To prepare a test compound for oral administration, between 30-120 mg of the test compound was dissolved in a vehicle solution consisting of 0.5% Methycellulose (cp 400) and 0.5% Tween 80. The compound was freshly prepared one hour prior to daily administration. If turbidity was observed, the solution was vortexed at over 2000 rpm for 10 minutes and mixed with a 1 mL syringe. The resulting solution formulation was utilized for in vivo studies.
Animals received either a vehicle or test compounds at dosage of 30 or 100 mg/kg daily through oral gavage (10 ml/kg). Body weight was measured twice a week using the Ohaus electronic scale (STX421) and the data was automatically added to the study log. Moreover, daily clinical observations were performed to closely monitor the animals. Tumor growth inhibition was computed using the following formula:
[formula] where T=current group value; T0=Current group initial value; C=Control group Value; C0=control group initial value.
Data of tumor volume were exported and analyzed in GraphPad Prism (9.5). The analysis included a two-way ANOVA test, comparing the vehicle control vs. treatments at different time points, followed by a Tukey HSD post hoc test.
The calculation of tumor regression was conducted as per the following formula:
[formula] where Day 0=treatment start day; Δ tumor volume=mean tumor volume on the evaluation day—mean tumor volume Day 0.

[6] = Cell culture media unbound percentage and stability by rapid equilibrium dialysis (Example C); format: in vitro ADME; details: bovine, cell assay medium (RPMI-1640 with 10% fetal bovine serum), pH 7.4, rapid equilibrium dialysis, 4 hours at 37° C., read-out: Cell Culture Media Binding (% unbound)
Summary of the method: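 Percent unbound in cell assay medium came from the LC-MS/MS receiver:donor peak area ratio, with stability taken as the 240 min over 0 min ratio. Set-up: 1 μM nominal compound in medium dialysed against pH 7.4 PBS (100 mM phosphate, 150 mM NaCl), 4 h, 37° C, shaken, in triplicate.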

[7] = SW48, 120 h, read-out: SW48 pCC50, SW48 cell viability, 120 hours incubation (converted), Table 2
[8] = SW48, read-out: SW48 pCC50, measured potency from Example B, as repeated in Table 3 (converted)

T1 sequence (Q14191 whole entry): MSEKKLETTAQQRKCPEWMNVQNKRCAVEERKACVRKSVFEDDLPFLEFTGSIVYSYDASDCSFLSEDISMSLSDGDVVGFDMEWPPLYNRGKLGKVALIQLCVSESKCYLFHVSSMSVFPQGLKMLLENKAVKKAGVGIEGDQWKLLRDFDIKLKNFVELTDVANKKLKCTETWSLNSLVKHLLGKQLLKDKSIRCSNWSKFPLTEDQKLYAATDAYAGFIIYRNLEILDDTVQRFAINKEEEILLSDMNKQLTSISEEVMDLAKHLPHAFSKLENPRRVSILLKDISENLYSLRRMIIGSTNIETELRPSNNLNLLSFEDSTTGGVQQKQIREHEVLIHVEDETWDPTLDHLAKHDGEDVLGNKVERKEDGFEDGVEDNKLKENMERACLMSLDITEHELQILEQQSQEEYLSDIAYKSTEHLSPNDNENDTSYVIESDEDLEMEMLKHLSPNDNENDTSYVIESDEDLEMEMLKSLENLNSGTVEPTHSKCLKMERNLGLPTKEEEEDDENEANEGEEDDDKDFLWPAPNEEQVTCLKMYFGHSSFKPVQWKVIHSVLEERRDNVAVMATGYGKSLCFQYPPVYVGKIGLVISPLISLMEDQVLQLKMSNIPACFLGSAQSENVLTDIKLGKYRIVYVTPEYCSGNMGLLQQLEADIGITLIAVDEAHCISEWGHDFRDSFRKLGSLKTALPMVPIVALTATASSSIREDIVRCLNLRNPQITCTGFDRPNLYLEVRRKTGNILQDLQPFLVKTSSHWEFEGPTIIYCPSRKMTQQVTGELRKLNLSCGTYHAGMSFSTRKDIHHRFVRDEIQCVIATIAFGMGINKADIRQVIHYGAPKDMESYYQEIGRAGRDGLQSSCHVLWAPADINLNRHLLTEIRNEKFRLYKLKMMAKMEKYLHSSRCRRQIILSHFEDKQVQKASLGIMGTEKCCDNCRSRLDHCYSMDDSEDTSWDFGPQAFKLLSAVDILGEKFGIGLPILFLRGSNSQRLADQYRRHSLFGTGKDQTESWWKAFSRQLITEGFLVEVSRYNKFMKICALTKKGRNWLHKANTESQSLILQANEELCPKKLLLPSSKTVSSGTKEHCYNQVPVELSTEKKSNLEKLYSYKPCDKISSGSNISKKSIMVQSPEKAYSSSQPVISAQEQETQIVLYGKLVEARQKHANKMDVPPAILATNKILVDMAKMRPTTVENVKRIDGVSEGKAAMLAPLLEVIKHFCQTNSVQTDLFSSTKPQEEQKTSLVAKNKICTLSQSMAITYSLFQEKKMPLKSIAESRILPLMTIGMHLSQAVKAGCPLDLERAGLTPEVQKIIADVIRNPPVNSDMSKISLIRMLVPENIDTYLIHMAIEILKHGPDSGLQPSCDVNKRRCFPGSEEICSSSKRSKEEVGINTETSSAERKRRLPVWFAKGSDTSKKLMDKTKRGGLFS

SMILES	SW48 pCC50 [1]	4 hr UNW pIC50 [2]	CC50 [3]	CC50 [4, 7]	CC50 [4, 8]	mean tumor regression ([5]; 30 mpk orally once a day, 21st day)	IC50 [2]	fraction unbound at 4 h, 1 µM [6]	tumor growth inhibition compared to the vehicle control ([5]; 30 mpk daily oral, 21st day)	mean tumor regression ([5]; 30 mpk daily oral, 23rd day)
Cc1nc2cc(S(=O)(=O)Nc3ccc([C@H]4CCC[C@@H](C(=O)Nc5ccc(C(F)(F)F)cc5F)[C@@H]4C(=O)O)cc3)ccc2[nH]1 (relative stereo) [Example 259, rel-(1R,2R,6S)-2-((2-fluoro-4-(trifluoromethyl)phenyl)carbamoyl)-6-(4-((2-methyl-1H-benzo[d]imidazole)-5-sulfonamido)phenyl)cyclohexane-1-carboxylic acid]	5.4	9.2	–	–	–	–	–	–	–	–
CCO[C@@H]1C[C@H](c2ccc(N(C)S(=O)(=O)c3ccc4c(c3)nc(C)n4C)cc2)[C@@H](C(=O)O)[C@H](C(=O)Nc2ccc(C(F)(F)F)cc2F)C1 (single isomer, unassigned) [Example 138]	–	–	17 nM	251 nM	251 nM	−74.26%	3.16 nM	0.067	–	–
COC[C@@H]1C[C@H](c2ccc(N(C)S(=O)(=O)c3ccc4c(c3)nc(C)n4C)cc2)[C@@H](C(=O)O)[C@H](C(=O)Nc2ccc(C(F)(F)F)cc2F)C1 (single isomer, unassigned) [Example 250]	–	–	8.51 nM	316 nM	316 nM	–	6.31 nM	0.027	72.95%	–
Cc1nc2cc(S(=O)(=O)N(C)c3ccc([C@H]4CCC[C@@H](COc5ccc(C(F)(F)F)cc5)[C@@H]4C(=O)O)cc3)cc([C@@H]3CCCNC3)c2n1C.Cl (stereo in doubt) [Example 210, rel-(1R,2R,6S)-2-((4-(trifluoromethyl)phenoxy)methyl)-6-(4-((N,1,2-trimethyl-7-((S)-piperidin-3-yl)-1H-benzo[d]imidazole)-5-sulfonamido)phenyl)cyclohexane-1-carboxylic acid, hydrochloride]	4.9	5.7	–	–	–	–	–	–	–	–
CN(c1ccc([C@H]2CCC[C@@H](C(=O)Nc3ccc(C(F)(F)F)cc3F)[C@@H]2C(=O)O)cc1)S(=O)(=O)c1ccc(-n2cccn2)cc1 [Example 98, (1R,2R,6S)-2-((2-fluoro-4-(trifluoromethyl)phenyl)carbamoyl)-6-(4-((N-methyl-4-(1H-pyrazol-1-yl)phenyl)sulfonamido)phenyl)cyclohexane-1-carboxylic acid]	5.5	8.6	–	–	–	–	–	–	–	–
Cc1nc2cc(S(=O)(=O)N(C)c3ccc([C@H]4C[C@@H](N5CCC(F)(F)C5)C[C@@H](C(=O)Nc5ccc(C(F)(F)F)cc5F)[C@@H]4C(=O)O)cc3)ccc2n1C [Example 306, (1R,2R,4R,6S)-4-(3,3-difluoropyrrolidin-1-yl)-2-((2-fluoro-4-(trifluoromethyl)phenyl)carbamoyl)-6-(4-((N,1,2-trimethyl-1H-benzo[d]imidazole)-5-sulfonamido)phenyl)cyclohexane-1-carboxylic acid]	–	–	10.2 nM	100 nM	100 nM	–	5.01 nM	0.103	–	−73.2%
